The test system of assay [1] is Mycobacterium tuberculosis. Description: Antimycobacterial activity against Mycobacterium tuberculosis H37Rv after 10 days by micro broth dilution method. Type of assay: functional. The following applies: 240 h. On the technique in general: In broth dilution the organism is exposed to a series of concentrations in liquid medium.
In the next assay the test system is Mycobacterium avium. The experiment in a line: Antimycobacterial activity against Mycobacterium avium after 10 days by micro broth dilution method. The assay is classed as functional. Conditions: 240 h.
Assay [2] in a line: Cytotoxicity against human FEH cells after 72 hrs by MTT assay. Type of assay: cell-based. For orientation: Formazan colour is commonly taken as a measure of viable cells.
The subject of another assay is Mycolicibacter terrae. Description: Antimycobacterial activity against Mycobacterium terrae after 10 days by micro broth dilution method. Type of assay: functional. Conditions: 240 h.

≈ marks a conversion by molar mass, not a printed value.

What is called MIC is the smallest concentration in the dilution series that meets the test's criterion for growth inhibition. `CC(C)[C@H](NC(=O)CNc1ncnc2[nH]cnc12)C(=O)O.O` showed an MIC in assay [1] of 12.5 mg/L. As usually defined, the IC50 is the concentration that gives 50% inhibition. High values mean lower potency, low ones higher potency. For the molecule `COC(=O)[C@H](CCSC)NC(=O)CNc1nc(NC(C)=O)nc2[nH]cnc12`, the MIC against Mycobacterium avium was found to be 3.1 mg/L (≈ 7.84 µM); in the assay on Mycolicibacter terrae, 1.5 mg/L (≈ 3.79 µM); in assay [1], 3.1 mg/L (≈ 7.84 µM). Besides, the IC50 in assay [2] is more than 50 µM.

In the case of `CC(C)[C@H](NC(=O)CNc1nc(N)nc2[nH]cnc12)C(=O)O.O.O`, in assay [1], the lowest concentration to inhibit growth (MIC) was 12.5 mg/L. The same measure, in the same setting: under `O=C(O)CNc1ncnc2[nH]cnc12` stands 6.25 mg/L (≈ 32.4 µM). With `O.O=C(O)CC[C@H](NC(=O)CNc1ncnc2[nH]cnc12)C(=O)O`, the MIC (in the assay on Mycobacterium avium; in the assay on Mycolicibacter terrae; in assay [1]) was 0.7 mg/L in each case. In assay [2], this molecule showed an IC50 of more than 50 µM. For `COC(=O)[C@H](Cc1ccccc1)NC(=O)CNc1ncnc2[nH]cnc12`, the MIC (with Mycobacterium avium; against Mycolicibacter terrae; in assay [1]) was 1.5 mg/L (≈ 4.23 µM) in each case. This molecule also registered an IC50 in assay [2] of more than 50 µM. In the case of `NNC(=O)c1ccncc1` [ISONIAZID], the MIC (in the assay with Mycobacterium avium; in the assay with Mycolicibacter terrae; in assay [1]) was 0.1 mg/L (≈ 0.729 µM) each time. On to `COC(=O)[C@H](CC(C)C)NC(=O)CNc1ncnc2[nH]cnc12`, for which the MIC in assay [1] was 12.5 mg/L (≈ 39 µM). `CC(=O)Nc1nc(N2CCC[C@H]2C(=O)OC(C)(C)C)c2nc[nH]c2n1`: the MIC (in the assay with Mycobacterium avium; in the assay with Mycolicibacter terrae; in assay [1]) was 6.25 mg/L (≈ 18 µM) in each case. The molecule also showed an IC50 in assay [2] of more than 50 µM. In the case of `O.O=C(CNc1ncnc2[nH]cnc12)N[C@@H](Cc1ccccc1)C(=O)O`, in assay [2], the IC50 is more than 50 µM. The molecule also came in with an MIC in assay [1] of 3.1 mg/L. With `CC(C)[C@H](Nc1nc(N)nc2[nH]cnc12)C(=O)O`, the MIC (with Mycobacterium avium; with Mycolicibacter terrae; in assay [1]) was 6.25 mg/L (≈ 25 µM) throughout. In assay [2], this molecule had an IC50 of more than 50 µM. Consider `COC(=O)[C@@H](NC(=O)CNc1nc(NC(C)=O)nc2[nH]cnc12)C(C)C`, for which, in assay [1], the minimal inhibitory concentration (MIC) turned out to be 12.5 mg/L (≈ 34.4 µM). Still for that read-out and setting: the figure for `COC(=O)[C@H](CC(C)C)NC(=O)CNc1nc(NC(C)=O)nc2[nH]cnc12` is 12.5 mg/L (≈ 33.1 µM). Still for that read-out and setting: under `O=C(O)CCNc1[nH]cnc2ncnc1-2` stands 12.5 mg/L (≈ 60.3 µM); under `COC(=O)[C@H](CCSC)NC(=O)CNc1ncnc2[nH]cnc12`, 12.5 mg/L (≈ 36.9 µM). Take `CSCC[C@H](NC(=O)CNc1nc(N)nc2[nH]cnc12)C(=O)O.O`: the MIC (against Mycobacterium avium; against Mycolicibacter terrae; in assay [1]) was 3.1 mg/L each time. In addition, in assay [2], the IC50 is more than 50 µM. As to `CC1COc2c(N3CCN(C)CC3)c(F)cc3c(=O)c(C(=O)O)cn1c23` (stereo unspecified) [OFLOXACIN], the minimal inhibitory concentration (MIC) (with Mycobacterium avium; against Mycolicibacter terrae; in assay [1]) was 0.1 mg/L (≈ 0.277 µM) in each case. Take `COC(=O)[C@H](Cc1ccccc1)NC(=O)CNc1nc(NC(C)=O)nc2[nH]cnc12`: the MIC in assay [1] is 12.5 mg/L (≈ 30.4 µM).

`CC(=O)Nc1nc(N[C@@H](C)C(=O)OC(C)(C)C)c2nc[nH]c2n1` showed an MIC in assay [1] of 12.5 mg/L (≈ 39 µM). For the molecule `Nc1nc(NCC(=O)N[C@@H](CCC(=O)O)C(=O)O)c2nc[nH]c2n1`, the values for the MIC (against Mycobacterium avium; in the assay on Mycolicibacter terrae; in assay [1]) were 0.35 mg/L (≈ 1.04 µM), 0.35 mg/L (≈ 1.04 µM) and 0.7 mg/L (≈ 2.08 µM), respectively. Moreover, the IC50 in assay [2] was more than 50 µM.

In turn, `O=C(O)CCCNc1ncnc2[nH]cnc12` registered an MIC in assay [1] of 12.5 mg/L (≈ 56.5 µM). Same read-out and setting: under `COC(=O)[C@@H](NC(=O)CNc1ncnc2[nH]cnc12)C(C)C` stands 12.5 mg/L (≈ 40.8 µM). Still for that read-out and setting: under `Nc1nc(NCC(=O)N[C@@H](CC(=O)O)C(=O)O)c2nc[nH]c2n1` stands 12.5 mg/L (≈ 38.7 µM). For `COC(=O)CNc1nc(N)nc2[nH]cnc12.Cl.Cl`, the MIC (against Mycobacterium avium; against Mycolicibacter terrae; in assay [1]) was 6.25 mg/L throughout. The IC50 in assay [2] is more than 50 µM. As for `C[C@H](NC(=O)CNc1ncnc2[nH]cnc12)C(=O)O.O`, the MIC in assay [1] worked out at 12.5 mg/L.

`CC(=O)Nc1nc(N[C@@H](CC(=O)OC(C)(C)C)C(=O)OC(C)(C)C)c2nc[nH]c2n1`: in assay [1], the MIC was determined as 12.5 mg/L (≈ 29.7 µM). The same measure, in the same setting: the figure for `CC(C)C[C@H](NC(=O)CNc1ncnc2[nH]cnc12)C(=O)O.O` is 12.5 mg/L; for `Nc1nc(NCC(=O)N[C@@H](Cc2ccccc2)C(=O)O)c2nc[nH]c2n1.O.O` it is 6.25 mg/L.

The molecule `C[C@H](NC(=O)CNc1nc(N)nc2[nH]cnc12)C(=O)O.O` showed a minimal inhibitory concentration (MIC) in assay [1] of 6.25 mg/L.

Regarding `CSCC[C@H](NC(=O)CNc1ncnc2[nH]cnc12)C(=O)O.O`, 12.5 mg/L was the least that counted as inhibitory in assay [1] (MIC). Same read-out and setting: under `CC(C)C[C@H](NC(=O)CNc1nc(N)nc2[nH]cnc12)C(=O)O.O` stands 12.5 mg/L. On the same count and under the same terms, the figure for `CC(=O)Nc1nc(N[C@@H](Cc2ccccc2)C(=O)OC(C)(C)C)c2nc[nH]c2n1` is 12.5 mg/L (≈ 31.5 µM); for `COC(=O)[C@H](C)NC(=O)CNc1ncnc2[nH]cnc12` it is 12.5 mg/L (≈ 44.9 µM).

`COC(=O)CC[C@H](NC(=O)CNc1nc(NC(C)=O)nc2[nH]cnc12)C(=O)OC`: it took 12.5 mg/L (≈ 30.7 µM) to inhibit growth in assay [1] (MIC). As to `COC(=O)CC[C@H](NC(=O)CNc1ncnc2[nH]cnc12)C(=O)OC`, the MIC in assay [1] came out at 12.5 mg/L (≈ 35.7 µM). Same read-out and setting: the figure for `Nc1nc(NCC(=O)O)c2nc[nH]c2n1` is 12.5 mg/L (≈ 60 µM); for `CC(=O)Nc1nc(N[C@H](C(=O)OC(C)(C)C)C(C)C)c2nc[nH]c2n1` it is 12.5 mg/L (≈ 35.9 µM). In assay [1], `O=C(O)CCCCCNc1ncnc2[nH]cnc12` gave a minimum inhibitory concentration (MIC) of 12.5 mg/L (≈ 50.1 µM).

The molecule `Nc1nc(N[C@@H](Cc2ccccc2)C(=O)O)c2nc[nH]c2n1` displayed an MIC in assay [1] of 12.5 mg/L (≈ 41.9 µM).

Consider `CC(=O)Nc1nc(NCC(=O)O)c2nc[nH]c2n1`, for which the MIC (with Mycobacterium avium; against Mycolicibacter terrae; in assay [1]) was 0.7 mg/L (≈ 2.8 µM) throughout. In assay [2], the IC50 was more than 50 µM.

Regarding `C[C@H](Nc1nc(N)nc2[nH]cnc12)C(=O)O`, the lowest concentration to inhibit growth in assay [1] (MIC) was 12.5 mg/L (≈ 56.3 µM).

Molecule `COC(=O)C[C@H](NC(=O)CNc1nc(NC(C)=O)nc2[nH]cnc12)C(=O)OC` displayed an MIC in assay [1] of 12.5 mg/L (≈ 31.8 µM). For the molecule `COC(=O)[C@H](C)NC(=O)CNc1nc(NC(C)=O)nc2[nH]cnc12.O`, 12.5 mg/L was the least that counted as inhibitory in assay [1] (MIC).

Consider `Nc1nc(N2CCC[C@H]2C(=O)O)c2nc[nH]c2n1`, for which the minimal inhibitory concentration (MIC) in assay [1] was determined as 12.5 mg/L (≈ 50.4 µM).

Source of the values: ChEMBL document CHEMBL3804804, “Synthesis and antimycobacterial activity of N-(2-aminopurin-6-yl) and N-(purin-6-yl) amino acids and dipeptides” (Bioorg Med Chem Lett, 2016).
